Results published in the NIST ThermoML archive (doi:10.1016/j.jct.2015.10.011).
Numbers after ± are expanded uncertainties.

Conditions: 298.15 K; 101.33 kPa; Liquid; Vibrating tube method

mass density: 655.19 ± 0.83 kg/m3
Compound: CCCCCC [hexane]
